Results as given in publication PMC8287028 (Frontiers in Veterinary Science, 2021).
Where “and” joins values, the source holds several entries; their conditions need not be identical. Equal entries are not always repeated. Where two headings read alike, the source gives them in different places.

Assays:
[1] = Pharmacokinetics after oral apixaban capsules, plasma concentrations by LC/MS; conditions: for AUC: AUC (area-under-the-curve); for Cmax: CMax (peak concentration); for bioavailability: F% (fraction of oral dose absorbed, bioavailability); for half-life: K10 T½ (apparent elimination half-life); for Vd/F: V/F (volume of distribution per fraction absorbed)
Text: (§1) Additionally, drug metabolism might be different in beagles compared with mixed-breed dogs ([33], [34]). […] The study was approved by the Institutional Animal Care and Use Committee (IACUC) at Cornell University College of Veterinary Medicine (Protocol #2019-0099). All dogs were housed at Cornell University and cared for by licensed veterinarians and technicians according to established protocols. All dogs were permanently adopted into private homes after study completion.
To achieve uniform dosing, custom IV (2.5 mg/ml) and oral capsule formulations were created. The protocol for generation of the IV formulation was as previously published ([25]), and all procedures were performed in a laminar flow hood under strict aseptic conditions. […] After vortexing, the formulation was aseptically filtered (Corning 0.22 μm cellulose acetate filter, Millipore-Sigma) then drawn into 10 ml syringes (BD, Franklin Lakes, NJ). The IV formulation was prepared 1 h before administration and stored in the dark at 20-25°C. […] All injection durations were identical. Separately, all dogs received bodyweight appropriate capsule size to provide ~0.2 mg/kg PO once. Capsules were administered without food and witnessed to be ingested. A minimum washout period of 2 weeks elapsed between initial PO administration and subsequent IV administration. The maximum duration of capsule storage prior to administration was 76 days.
On the days of drug administration, 5 Fr × 25 cm trilumen wire-guided catheters (Mila International, Erlanger, KY) were aseptically placed in external jugular veins by modified-Seldinger technique to facilitate atraumatic, repeat blood sample collection. Dogs were sedated with IV butorphanol 0.2 mg/kg and dexmedetomidine 5 μg/kg (Zoetis, Parsippany, NJ) to facilitate catheter placement. Jugular catheters were secured using 3-0 nylon sutures, protected with sterile bandages, and flushed with 0.9% saline (no heparin was used). Dogs were allowed to recover fully from sedation prior to drug administration. […] Catheters were flushed with 0.9% saline, without heparin. Samples were also drawn into K2-EDTA and no-additive tubes at baseline and 24 h post-administration for complete blood counts and serum biochemistry profiles. Dogs were closely monitored for adverse reactions throughout the sample collection period. […] After each sample collection, one citrate anticoagulated whole blood sample was analyzed using thromboelastography (TEG), while the second citrate sample was centrifuged (1,370 g, 10 min, 20°C), the plasma separated, split into two aliquots and then frozen at −80°C pending batch analyses.
In brief, proteins in the sample were initially precipitated by combining 100 μl of plasma sample with 200 μl of 0.1 M ZnSO4 solution and 700 μl of isotope standard stock solution, mixing in a vortex device for 5 s followed by centrifugation (14,000 g, 5 min, RT). The supernatant was added to glass autosampler vials and an aliquot injected into the liquid chromatography 2D UPLC system (Waters Acquity UPLC H-class with 2D Technology System). Sample extraction was performed using a 2.1 × 30 mm reverse phase cartridge (column 1, Waters, XBridge C8, 10 μm) followed by an analytical separation on a 2.1 × 50 mm reverse phase column (column 2, Waters, Acquity UPLC BEH C18, 1.7 μm) and an elution with a linear gradient using water containing 0.1% formic acid and 2 mmol/L ammonium acetate and methanol containing 0.1% formic acid and 2 mmol/L ammonium acetate. […] A 10-point calibration curve was generated with concentrations ranging from 1 to 1,000 ng/ml, with three quality control samples at each of three concentrations (low, 2.5 ng/ml; medium, 50 ng/ml; high, 500 ng/ml).
Where C is the plasma drug concentration, V is the volume of distribution, D is the dose, K10 is the first order elimination rate constant, and T is time. Secondary parameters included area-under-the curve (AUC), systemic clearance (CL), and half-life.

healthy mixed-breed dogs [2] = assay: Monitoring for adverse reactions after IV and PO apixaban; conditions: study period
Text: as §1
On the days of drug administration, 5 Fr × 25 cm trilumen wire-guided catheters (Mila International, Erlanger, KY) were aseptically placed in external jugular veins by modified-Seldinger technique to facilitate atraumatic, repeat blood sample collection. Dogs were sedated with IV butorphanol 0.2 mg/kg and dexmedetomidine 5 μg/kg (Zoetis, Parsippany, NJ) to facilitate catheter placement. Jugular catheters were secured using 3-0 nylon sutures, protected with sterile bandages, and flushed with 0.9% saline (no heparin was used). […] Dogs were closely monitored for adverse reactions throughout the sample collection period. […] After each sample collection, one citrate anticoagulated whole blood sample was analyzed using thromboelastography (TEG), while the second citrate sample was centrifuged (1,370 g, 10 min, 20°C), the plasma separated, split into two aliquots and then frozen at −80°C pending batch analyses.

healthy mixed-breed dogs [3] = assay: Complete blood count before and after apixaban; format: in vivo, dog; parameters: RBC: unit not given beside the values; Neut / Lymph / Mono / Eos / Baso / HCT / MCV / MCH / MCHC: unit not given here; conditions: for Baso / Eos / HCT / Hgb / Lymph / MCH / MCHC / MCV / Mono / Neut / RBC / WBC: individual dogs (Dog 1-6); for WBC: in 10^3/µL (unit assumed)
[4] = cats, cited from earlier work
Factor Xa = conditions: cited from earlier work
[5] = both, mixed-breed, dog, plasma, po, 0.2 mg/kg, dogs, mean dose 0.2 mg/kg, geometric mean, n = 5
[6] = both, mixed-breed, dog, plasma, po, 0.2 mg/kg, dogs, mean dose 0.2 mg/kg, mean, n = 5
[7] = dogs, PO, mean dose 0.2 mg/kg, model fit, individual dogs (Dog 1-5), 0.2 mg/kg
[8] = dogs, PO, mean dose 0.2 mg/kg, geometric mean, n = 5
[9] = dogs, PO, mean dose 0.2 mg/kg, individual dogs (Dog 1-5), 0.2 mg/kg
[10] = dogs, PO, mean dose 0.2 mg/kg, mean, n = 5

**Q.** Which results are given for COc1ccc(-n2nc(C(N)=O)c3c2C(=O)N(c2ccc(N4CCCCC4=O)cc2)CC3)cc1 [apixaban]?
**A.** mean maximum observed plasma concentration (CMax) ([1]; both, mixed-breed, dog, in vivo, po): 176 ± 126 ng/mL; CL/F ([1]; both, mixed-breed, dog, in vivo, po, 0.2 mg/kg): 1.88 mL/min/kg; AUC [1, 5]: 1770 ng·h/mL; AUC [1, 6]: 1950 ng·h/mL; CL/F ([1]; both, mixed-breed, dog, plasma, po, 0.2 mg/kg, CL/F (systemic clearance per fraction absorbed), dogs, mean dose 0.2 mg/kg, mean, n = 5): 2.08 mL/min/kg; Cmax ([1]; both, mixed-breed, dog, plasma, po, 0.2 mg/kg, dogs, mean dose 0.2 mg/kg, model fit, geometric mean, n = 5): 196 ng/mL; Cmax ([1]; both, mixed-breed, dog, plasma, po, 0.2 mg/kg, dogs, mean dose 0.2 mg/kg, model fit, mean, n = 5): 223 ng/mL; bioavailability ([1]; both, mixed-breed, dog, plasma, po, 0.2 mg/kg, dogs, PO 0.2 mg/kg vs IV 0.18 mg/kg, geometric mean, n = 5): 24.1%; bioavailability ([1]; both, mixed-breed, dog, plasma, po, 0.2 mg/kg, dogs, PO 0.2 mg/kg vs IV 0.18 mg/kg, mean, n = 5): 28.4%; half-life [1, 5]: 3 h; half-life ([1]; both, mixed-breed, dog, plasma, po, 0.2 mg/kg, dogs, mean dose 0.2 mg/kg, individual dogs (Dog 1-5)): 3.8 h; half-life [1, 6]: 3.1 h; TMax ([1]; both, mixed-breed, dog, plasma, po, 0.2 mg/kg, TMax, dogs, mean dose 0.2 mg/kg, model fit, geometric mean, n = 5): 5 h; TMax ([1]; both, mixed-breed, dog, plasma, po, 0.2 mg/kg, TMax, dogs, mean dose 0.2 mg/kg, model fit, individual dogs (Dog 1-5)): 3.5 h; Vd/F [1, 5]: 0.492 L/kg; Vd/F [1, 6]: 0.534 L/kg; F% (fraction of oral dose absorbed, bioavailability) ([1]; dogs, PO 0.2 mg/kg vs IV 0.18 mg/kg, individual dogs (Dog 1-5)): 35.0% and 51.5% and 15.0% and 10.0% and 30.4%; residual plasma concentrations ([1]; dogs, PO 0.2 mg/kg, quantifiable at the 24-h time point): declined to below the level of quantitation by the 30-h time point; AUC (area-under-the-curve) ([1]; dogs, PO capsule, mean dose 0.2 mg/kg, fasted, individual dogs (Dog 1-5), 0.2 mg/kg): 2,082.4 h*ng/ml and 2,396.3 h*ng/ml and 1,335.5 h*ng/ml and 863.4 h*ng/ml and 3,051.2 h*ng/ml; CMax (peak concentration) [1, 7]: 236.2 ng/mL and 294.3 ng/mL and 165.1 ng/mL and 71.4 ng/mL and 348.5 ng/mL; TMax [1, 7]: 4.4 h and 4.9 h and 6.3 h and 6.1 h; TMax (time to CMax) ([1]; dogs, PO, mean dose 0.2 mg/kg, model fit, mean, n = 5, 0.2 mg/kg): 5 h; K01 (first order absorption rate) [1, 8]: 0.4 h⁻¹; K10 (first order elimination rate) [1, 8]: 0.2 h⁻¹; TLag (lag time for capsule dissolution and stomach emptying) [1, 8]: 1.8 h; CL/F (systemic clearance per fraction absorbed) [1, 9]: 1.64 mL/min/kg and 1.33 mL/min/kg and 2.597 mL/min/kg and 3.668 mL/min/kg and 1.15 mL/min/kg; K01 (first order absorption rate) [1, 9]: 0.7 h⁻¹ and 0.5 h⁻¹ and 0.3 h⁻¹ and 0.2 h⁻¹ and 0.6 h⁻¹; K10 (first order elimination rate) [1, 9]: 0.2 1/h (4×) and 0.3 1/h; TLag (lag time for capsule dissolution and stomach emptying) [1, 9]: 0.9 h and 1.6 h and 1.9 h and 1.8 h and 3.4 h; V/F (volume of distribution per fraction absorbed) [1, 9]: 0.5407 L/kg and 0.3267 L/kg and 0.4659 L/kg and 0.9747 L/kg and 0.3612 L/kg; K01 (first order absorption rate) [1, 10]: 0.5 h⁻¹; K10 (first order elimination rate) [1, 10]: 0.2 h⁻¹; TLag (lag time for capsule dissolution and stomach emptying) ([1]; dogs, PO, mean dose 0.2 mg/kg, mean, n = 5, 0.2 mg/kg): 2 h and 2.0 h; time of mean maximum observed plasma concentration ([1]; dogs, single oral dose 0.20 mg/kg, post-dosing, observed): 6 h; adverse reactions, including signs of abnormal bleeding or bruising (healthy mixed-breed dogs [2]): no adverse reactions; Baso (healthy mixed-breed dogs [3]; +24h after IV apixaban): 0.1 (2×) and 0.0 (4×); Eos (healthy mixed-breed dogs [3]; +24h after IV apixaban): 0.3 (2×) and 0.4 (2×) and 0.7 (2×); HCT (healthy mixed-breed dogs [3]; +24h after IV apixaban): 53 and 52 (2×) and 54 (2×) and 57; Hgb (healthy mixed-breed dogs [3]; +24h after IV apixaban): 17.7 and 17.2 and 16.8 and 17.5 (2×) and 18.3; Lymph (healthy mixed-breed dogs [3]; +24h after IV apixaban): 2.3 and 2 (2×) and 3.3 and 1.6 and 3.7; MCH (healthy mixed-breed dogs [3]; +24h after IV apixaban): 25 (3×) and 23 and 24 (2×); MCHC (healthy mixed-breed dogs [3]; +24h after IV apixaban): 33 (2×) and 32 (4×); MCV (healthy mixed-breed dogs [3]; +24h after IV apixaban): 73 and 75 and 71 and 74 and 76 (2×); Mono (healthy mixed-breed dogs [3]; +24h after IV apixaban): 0.3 (2×) and 0.6 and 0.5 (3×); Neut (healthy mixed-breed dogs [3]; +24h after IV apixaban): 4.1 and 5.8 and 5.6 (2×) and 5.1 and 8.0; RBC (healthy mixed-breed dogs [3]; +24h after IV apixaban): 7.2 (2×) and 6.9 and 7.3 (2×) and 7.4; WBC (healthy mixed-breed dogs [3]; +24h after IV apixaban): 7.1 and 8.8 and 9.6 and 8.9 and 7.6 and 13; Baso (healthy mixed-breed dogs [3]; +30h after PO apixaban): 0 (3×) and 0.1 and 0.0 (2×); Eos (healthy mixed-breed dogs [3]; +30h after PO apixaban): 0.3 (2×) and 0.2 (2×) and 0.4 and 0.6; HCT (healthy mixed-breed dogs [3]; +30h after PO apixaban): 56 and 55 and 52 (2×) and 46 and 50; Lymph (healthy mixed-breed dogs [3]; +30h after PO apixaban): 3.2 and 2 (2×) and 1.6 and 0.8 and 3.6; MCH (healthy mixed-breed dogs [3]; +30h after PO apixaban): 24 (2×) and 25 (2×) and 23 (2×); MCHC (healthy mixed-breed dogs [3]; +30h after PO apixaban): 33 (4×) and 32 (2×); MCV (healthy mixed-breed dogs [3]; +30h after PO apixaban): 72 (2×) and 76 and 70 and 75 and 74; Mono (healthy mixed-breed dogs [3]; +30h after PO apixaban): 0.5 (4×) and 0.4 and 0.3; Neut (healthy mixed-breed dogs [3]; +30h after PO apixaban): 6.1 (2×) and 5.4 and 7.9 and 5.7 and 7.3; WBC (healthy mixed-breed dogs [3]; +30h after PO apixaban): 10.1 and 8.3 and 10.8 and 8 and 7.6 and 12.1; RBC (healthy mixed-breed dogs [3]; +30h after PO apixaban, in 10^6/µL (unit assumed)): 7.8 and 7.3 and 7.4 and 6.2 and 7 and 7.1; Hgb (healthy mixed-breed dogs [3]; +30h after PO apixaban, in g/dL (unit assumed)): 18.6 and 18 and 17 and 15.1 and 16.2 and 16.9; CBC parameters (healthy mixed-breed dogs [3]; IV, baseline versus 24 h): No changes; mean corpuscular hemoglobin concentration (healthy mixed-breed dogs [3]; PO, baseline versus 30 h): significant reduction; time of peak aXa activity ([4]; following oral administration): 4 h; half-life ([4]; intravenously administered apixaban): 1.13 h; half-life ([4]; oral apixaban): 3.3 h; bioavailability ([4]; oral): 85.5%; aXa activity observed after 12 h (Factor Xa; humans receiving a single intravenous apixaban injection): 150 ng/mL; aXa activity values typically observed in human treatment trials (Factor Xa; humans): approximately 150 ng/ml
